Results on 4 compounds are retold here after ChEMBL document CHEMBL1201862, “PubChem BioAssay data set” (2004).

Each structure is given as a SMILES string.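 Where inhibition never reached the appropriate level, the endpoint shown equals the highest concentration tested. Otherwise, values were interpolated linearly from a five-concentration, 48-hour dose response in 96-well plates. GI50 marks 50% less growth.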 The source made the active and inactive calls. Cut-off read from the data, not from the text of the source: active = GI50 up to about 1.1 µM and inactive = higher.

Test systems include A549; ACHN; DU-145; EKVX; HCC 2998; HCT-15; HOP-92; HT-29; Hs-578T; LOX IMVI; MDA-MB-231; Malme-3M; OVCAR-5; PC-3; SF-539; SK-MEL-5; SK-OV-3; SN12C; U-251; UACC-257.
Assay in all cases: NCI anticancer screen, dose series, 48 h

Take `O=C(O)Cc1ccccc1` [PHENYLACETIC ACID]: the GI50 is > 100 µM (inactive) in the assay with A549; > 100 µM (inactive) in the assay with ACHN; > 100 µM (inactive) with DU-145; > 100 µM (inactive) in the assay with EKVX; > 100 µM (inactive) in the assay on HCC 2998; above 100 µM in the assay with HCT-15. Besides, the GI50 was 11.4 µM (inactive) in the assay with HOP-92; > 100 µM (inactive) with HT-29; > 100 µM (inactive) in the assay on Hs-578T; > 100 µM (inactive) in the assay on LOX IMVI; > 100 µM (inactive) in the assay on MDA-MB-231; > 100 µM (inactive) in the assay with Malme-3M. Moreover, the GI50 with OVCAR-5, with PC-3, in the assay with SF-539, in the assay with SK-MEL-5, in the assay with SK-OV-3 and in the assay with SN12C was > 100 µM (inactive) each time. The GI50 in the assay on U-251 and in the assay on UACC-257 was > 100 µM (inactive) throughout.
On to `CCOC(=O)C1(Cc2c[nH]c3ccccc23)C(O)CCCN1C(C)=O` (configuration not stated), for which the GI50 with A549 is > 100 µM (inactive); with ACHN it was > 100 µM (inactive); in the assay with DU-145, > 100 µM (inactive); in the assay with EKVX it was > 100 µM (inactive); with HCC 2998 it was > 100 µM (inactive); in the assay on HCT-15, above 100 µM. For the same compound, the GI50 in the assay on HOP-92, in the assay on HT-29, in the assay on Hs-578T, with LOX IMVI, with MDA-MB-231 and in the assay on Malme-3M was > 100 µM (inactive) each time. The GI50 with OVCAR-5, in the assay with PC-3, with SF-539, in the assay on SK-MEL-5, in the assay with SK-OV-3 and in the assay with U-251 was > 100 µM (inactive) throughout. Moreover, the GI50 in the assay on UACC-257 was > 100 µM (inactive).
`C/C1=C\[C@@H](O)C(=O)/C=C/C=C\c2csc(n2)[C@@H](C)NC(=O)C[C@@]2(CC1)[S+]([O-])SC(=O)[C@]2(C)O` (some centres not stated) [LEINAMYCIN]: the GI50 was 0.12 µM (active) with A549; 0.00679 µM (active) in the assay on DU-145; 0.261 µM (active) with EKVX; 0.184 µM (active) in the assay with HCC 2998; 0.0134 µM in the assay with HCT-15; 0.00228 µM (active) in the assay on HOP-92. Also, the GI50 in the assay with HT-29 is 0.04 µM (active); in the assay on Hs-578T it was 0.0337 µM (active); in the assay on LOX IMVI it was 0.0116 µM (active); in the assay with MDA-MB-231 it was 0.0321 µM (active); in the assay on Malme-3M, 0.00656 µM (active); with OVCAR-5 it was 0.104 µM (active). The GI50 was 0.0128 µM (active) with PC-3; 0.00968 µM (active) in the assay on SF-539; 0.00673 µM (active) with SK-MEL-5; 0.138 µM (active) in the assay with SK-OV-3; 0.0203 µM (active) in the assay on SN12C; 0.0454 µM (active) with U-251. Besides, the GI50 in the assay with UACC-257 was 0.0298 µM (active).
For `Cc1c(-c2ccccc2)c(C#N)c2nnn(-c3cccc(Cl)c3)c(=O)n12`, the GI50 in the assay on ACHN is 53.2 µM (inactive); with DU-145, 68.9 µM (inactive); in the assay with EKVX, 33.1 µM (inactive); in the assay on HCC 2998 it was 78.7 µM (inactive); in the assay on HCT-15, 41.1 µM; with HOP-92, 44.9 µM (inactive). Also, the GI50 in the assay with HT-29 was 30.8 µM (inactive); in the assay on Hs-578T it was > 100 µM (inactive); in the assay with LOX IMVI, 87.1 µM (inactive); with MDA-MB-231, 25.1 µM (inactive); in the assay on Malme-3M, 87.5 µM (inactive); in the assay on OVCAR-5, > 100 µM (inactive). Also, the GI50 is 26.5 µM (inactive) in the assay on PC-3; 32.9 µM (inactive) in the assay with SF-539; 71.1 µM (inactive) in the assay with SK-MEL-5; 37.8 µM (inactive) in the assay on SK-OV-3; 71.8 µM (inactive) in the assay on SN12C; 68.4 µM (inactive) with U-251. Moreover, the GI50 in the assay with UACC-257 was > 100 µM (inactive).
